Experimental data reported in US8278348B2, “Chondropsin-class antitumor V-atpase inhibitor compounds, compositions and methods of use thereof” (priority 2002, dated 2012).

How the values were obtained:
Test in all cases: Two day XTT cytotoxicity assay
Assay type in all cases: cell-based
[1] = tested on: A549; conditions: Homo sapiens, Breast
Excerpt: (§1) This example describes the cytoxicity of poecillastrin A (1), isolated in Example 1. The cytotoxicity assay, details of which have been described previously (Bokesch et al., J. Nat. Prod. 1999, 62, 633-635), utilized melanoma (LOX), breast […], ovarian (OVCAR-3), and non-small cell lung (SNB-19) human tumor cell lines and IC-2^WT and IC-2^V814 murine mast cell lines (Hashimoto et al., Am. J. Pathol. 1996, 148, 189-200).
(§2) The in vitro 10 cell-line bioassay was a two day bioassay. Cells were grown in RPMI-1640 (Rosweli Park Memorial Institute) without L-glutamine, supplemented with 10% fetal bovine serum, 5.0 mL of a 200 mM glutamine stock, and 0.5 mL of gentamicin and plated out in T-162 cm^2 flasks. Once the cells were confluent, they were harvested and plated in 96-well microtiter flat-bottom plates at a seeding density of 50-10,000 cells per well, to yield optical density readings in the range of 1-2.0, and incubated for 1 h in a 37° C., 5% CO2 incubator. After the 1 h incubation, the cells were then introduced to the sample of poecillastrin A, via a Beckman Biomek Workstation-1000. The Biomek-1000 performed seven serial dilutions in a 96-well round-bottom plate and then transferred aliquots of 100 μL to the assay plate. The plate was then returned to the incubator for […]. After the two day incubation, the cells were exposed to tetrazolium salt, 2,3-bis[2-methoxy-4-nitro-5-sulfophenyl]-2H-tetrazolium-5-carboxanilide (XTT), for a 4 h incubation in a 37° C. incubator, where viable cells reduced the tetrazolium salt to a colored formazan product. Once the incubation was complete, the plates were read in a dual wavelength mode at 450 nm, with a 650 nm reference, using a SpectraMAX 250 (Molecular Devices) plate reader. Resulting data for each cell line are found in Table 3.

[2] = tested on: IC-2 V814; conditions: Mus musculus, Murine mast cell
Excerpt: as §1, §2

[3] = tested on: IC-2 WT; conditions: Mus musculus, Murine mast cell
Excerpt: as §1, §2

[4] = tested on: LOX; conditions: Homo sapiens, Melanoma
Excerpt: as §1, §2

[5] = tested on: OVCAR-3; conditions: Homo sapiens, Ovarian
Excerpt: as §1, §2

[6] = tested on: SNB-19; conditions: Homo sapiens, Non-small cell lung
Excerpt: as §1, §2

**Q.** With `COC1/C=C/C=C/CC/C=C/C=C/C(=O)NC(C(O)C(=O)O)C(=O)OC(C(C)C(O)C(NC(=O)C(C)C(O)CCC(C)C(O)/C(C)=C/C(C)(C)C(O)C(CC(C)C)NC(=O)/C=C/C(C)(C)C(=O)C(C)C(O)C(C)C)C(C)O)C/C=C(\C)C(O)C(C)/C=C(\C)C(O)C(C)C(O)CC2CC(C)CC1O2` (stereo not drawn) [Poecillastrin A, poecillastrin A] as the compound, how does the IC50 [1] read?
**A.** > 10000 nM

**Q.** What about the IC50 [2] of the same compound?
**A.** 546 nM

**Q.** And the IC50 [3]?
**A.** 206 nM

**Q.** What about the IC50 [4] of the same compound?
**A.** 14 nM

**Q.** And the IC50 [5]?
**A.** 28 nM

**Q.** What about the IC50 [6] of the same compound?
**A.** > 10000 nM
